Data published in PubChem BioAssay (NCI).
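The compound was tested at five concentrations on cells cultured in 96-well plates, with a 48-hour exposure period. TGI: total growth inhibition.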

Legend:
Assay in all cases: growth of human tumour cells (NCI), 48 h
[1] = system: COLO 205 colon
[2] = system: SK-OV-3 ovarian
[3] = system: HL-60(TB) leukemia
[4] = system: M14 melanoma
[5] = system: OVCAR-3 ovarian
[6] = system: 786-0 renal
[7] = system: SNB-19 CNS
[8] = system: ACHN renal
[9] = system: DLD-1 colon
[10] = system: MALME-3M melanoma
[11] = system: SF-539 CNS
[12] = system: RXF-631 renal
[13] = system: UACC-62 melanoma
[14] = system: CCRF-CEM leukemia
[15] = system: OVCAR-8 ovarian
[16] = system: SW-620 colon
[17] = system: UACC-257 melanoma
[18] = system: HOP-62 NSCLC
[19] = system: LOX IMVI melanoma
[20] = system: HOP-92 NSCLC
[21] = system: KM20L2 colon
[22] = system: SNB-78 CNS
[23] = system: K-562 leukemia
[24] = system: NCI-H23 lung
[25] = system: TK-10 renal
[26] = system: SK-MEL-28 melanoma
[27] = system: UO-31 renal
[28] = system: NCI-H460 lung
[29] = system: OVCAR-5 ovarian
[30] = system: SK-MEL-2 melanoma
[31] = system: RPMI-8226 leukemia
[32] = system: EKVX NSCLC
[33] = system: M19-MEL melanoma
[34] = system: IGROV1 ovarian
[35] = system: SNB-75 CNS
[36] = system: MOLT-4 leukemia
[37] = system: XF 498 CNS
[38] = system: U251 CNS
[39] = system: HCT-116 colon
[40] = system: DMS 273 small cell lung
[41] = system: NCI-H522 lung
[42] = system: RXF 393 renal
[43] = system: KM12 colon
[44] = system: A549 NSCLC
[45] = system: HCC-2998 colon
[46] = system: A498 renal
[47] = system: HT29 colon
[48] = system: OVCAR-4 ovarian
[49] = system: SN12C renal
[50] = system: SK-MEL-5 melanoma
[51] = system: HOP-18 NSCLC
[52] = system: CAKI-1 renal
[53] = system: LXFL 529 NSCLC
[54] = system: DMS 114 small cell lung
[55] = system: SF-268 CNS
[56] = system: HCT-15 colon
[57] = system: NCI-H226 lung
[58] = system: SR leukemia
[59] = system: SF-295 CNS

In the case of `COC(=O)NC12CC3CC(CC(F)(C3)C1)C2`, the TGI [1] is reported as > 100 µM, the TGI [2] is reported as > 100 µM and the TGI [3] is reported as > 100 µM. For the same compound, the TGI [4] was > 100 µM, the TGI [5] was > 100 µM and the TGI [6] was > 100 µM. The TGI [7] was > 100 µM, the TGI [8] was > 100 µM and the TGI [9] was > 100 µM. For the same compound, the TGI [10] was > 100 µM, the TGI [11] was > 100 µM and the TGI [12] was > 100 µM. The TGI [13] was > 100 µM, the TGI [14] was > 100 µM and the TGI [15] was > 100 µM. The TGI [16] was > 100 µM, the TGI [17] was > 100 µM and the TGI [18] was > 100 µM. For the same compound, the TGI [19] was > 100 µM, the TGI [20] was > 100 µM and the TGI [21] was > 100 µM. The TGI [22] was > 100 µM, the TGI [23] was > 100 µM and the TGI [24] was > 100 µM. For the same compound, the TGI [25] was > 100 µM, the TGI [26] was > 100 µM and the TGI [27] was > 100 µM. For the same compound, the TGI [28] was > 100 µM, the TGI [29] was > 100 µM and the TGI [30] was > 100 µM. For the same compound, the TGI [31] was > 100 µM, the TGI [32] was > 100 µM and the TGI [33] was > 100 µM. The TGI [34] was > 100 µM, the TGI [35] was > 100 µM and the TGI [36] was > 100 µM. The TGI [37] was > 100 µM, the TGI [38] was > 100 µM and the TGI [39] was > 100 µM. For the same compound, the TGI [40] was > 100 µM, the TGI [41] was > 100 µM and the TGI [42] was > 100 µM. For the same compound, the TGI [43] was > 100 µM, the TGI [44] was > 100 µM and the TGI [45] was > 100 µM. The TGI [46] was > 100 µM and the TGI [47] was > 100 µM.
`Cc1ccc(NC(=O)C(=O)CC(=O)c2c(C)n([O-])c3ccccc3[n+]2=O)cc1` was tested, and the TGI [1] was 55.2 µM, the TGI [2] was > 100 µM and the TGI [3] was 48.6 µM. For the same compound, the TGI [4] was 60.1 µM, the TGI [5] was 35.1 µM and the TGI [48] was 96.3 µM. The TGI [49] was > 100 µM, the TGI [6] was > 100 µM and the TGI [50] was 78.2 µM. The TGI [7] was > 100 µM, the TGI [8] was > 100 µM and the TGI [51] was > 100 µM. The TGI [52] was > 100 µM, the TGI [53] was > 100 µM and the TGI [10] was 65.2 µM. For the same compound, the TGI [11] was 62.5 µM, the TGI [12] was > 100 µM and the TGI [13] was 32.6 µM. For the same compound, the TGI [14] was 49 µM, the TGI [15] was 55.8 µM and the TGI [16] was > 100 µM. The TGI [17] was 50.7 µM, the TGI [18] was > 100 µM and the TGI [19] was 45.4 µM. For the same compound, the TGI [54] was 38.5 µM, the TGI [20] was > 100 µM and the TGI [21] was 71.8 µM. The TGI [55] was 96.2 µM, the TGI [56] was 89.4 µM and the TGI [22] was > 100 µM. The TGI [23] was 56.4 µM, the TGI [24] was 56.6 µM and the TGI [25] was > 100 µM. The TGI [26] was > 100 µM, the TGI [27] was > 100 µM and the TGI [57] was > 100 µM. For the same compound, the TGI [28] was 77.4 µM, the TGI [29] was > 100 µM and the TGI [30] was 53 µM. It also gave a TGI [31] of 58.6 µM, a TGI [32] of 40.9 µM and a TGI [33] of 36.1 µM. For the same compound, the TGI [34] was 78.3 µM, the TGI [35] was 58 µM and the TGI [36] was 52.8 µM. For the same compound, the TGI [58] was 49.8 µM, the TGI [38] was 92.3 µM and the TGI [39] was 37.2 µM. For the same compound, the TGI [40] was 59.6 µM, the TGI [41] was 46.1 µM and the TGI [59] was > 100 µM. The TGI [42] was > 100 µM, the TGI [43] was > 100 µM and the TGI [44] was 87.3 µM. The TGI [45] was > 100 µM, the TGI [46] was > 100 µM and the TGI [47] was 86.4 µM.
`O=C(O)CNS(=O)(=O)c1ccc(NC(=O)CI)cc1` showed a TGI [1] of 96.8 µM, a TGI [2] of 72.8 µM and a TGI [3] of 37.5 µM. For the same compound, the TGI [4] was 44.3 µM, the TGI [5] was 62 µM and the TGI [48] was 41.4 µM. For the same compound, the TGI [49] was > 100 µM, the TGI [6] was 28.6 µM and the TGI [50] was 63 µM. The TGI [7] was > 100 µM, the TGI [8] was > 100 µM and the TGI [51] was > 100 µM. The TGI [52] was > 100 µM, the TGI [53] was 20.2 µM and the TGI [9] was 60.7 µM. The TGI [10] was 39.6 µM, the TGI [11] was 30 µM and the TGI [12] was 32.5 µM. It also gave a TGI [13] of 66.8 µM, a TGI [14] of 5.85 µM and a TGI [15] of 48.6 µM. For the same compound, the TGI [16] was 39.6 µM, the TGI [17] was > 100 µM and the TGI [19] was 37.6 µM. It also gave a TGI [20] of 36.4 µM, a TGI [21] of 54.5 µM and a TGI [55] of 44.3 µM. For the same compound, the TGI [56] was 41.5 µM, the TGI [23] was 62.1 µM and the TGI [24] was 39.8 µM. The TGI [25] was > 100 µM, the TGI [26] was 72.4 µM and the TGI [27] was 39.5 µM. For the same compound, the TGI [57] was > 100 µM, the TGI [28] was 64 µM and the TGI [29] was 61.1 µM. For the same compound, the TGI [30] was 73.6 µM, the TGI [31] was 38.6 µM and the TGI [32] was 81.6 µM. For the same compound, the TGI [33] was > 100 µM, the TGI [34] was > 100 µM and the TGI [35] was 32.2 µM. It also gave a TGI [36] of 34.5 µM, a TGI [37] of 29.5 µM and a TGI [38] of 35 µM. For the same compound, the TGI [40] was 38.8 µM, the TGI [41] was 4.4 µM and the TGI [59] was 68.5 µM. The TGI [42] was 31.1 µM, the TGI [43] was 68.5 µM and the TGI [44] was > 100 µM. The TGI [45] was > 100 µM, the TGI [46] was > 100 µM and the TGI [47] was 54.4 µM.
In the case of `Fc1ccccc1C1SCc2nc3ccccc3n21` (stereo not drawn), the TGI [1] is reported as > 100 µM, the TGI [2] is reported as > 100 µM and the TGI [3] is reported as 44.6 µM. The TGI [5] was > 100 µM, the TGI [49] was > 100 µM and the TGI [6] was > 100 µM. For the same compound, the TGI [50] was 42.9 µM, the TGI [7] was > 100 µM and the TGI [8] was > 100 µM. The TGI [52] was > 100 µM, the TGI [53] was > 100 µM and the TGI [9] was > 100 µM. The TGI [10] was > 100 µM, the TGI [11] was > 100 µM and the TGI [12] was > 100 µM. For the same compound, the TGI [13] was > 100 µM, the TGI [14] was > 100 µM and the TGI [15] was > 100 µM. The TGI [16] was > 100 µM, the TGI [17] was > 100 µM and the TGI [54] was > 100 µM. For the same compound, the TGI [20] was 72.7 µM, the TGI [55] was > 100 µM and the TGI [22] was > 100 µM. For the same compound, the TGI [23] was > 100 µM, the TGI [24] was > 100 µM and the TGI [25] was > 100 µM. For the same compound, the TGI [26] was > 100 µM, the TGI [27] was > 100 µM and the TGI [57] was > 100 µM. The TGI [28] was > 100 µM, the TGI [29] was > 100 µM and the TGI [30] was > 100 µM. For the same compound, the TGI [31] was > 100 µM, the TGI [32] was > 100 µM and the TGI [33] was > 100 µM. For the same compound, the TGI [34] was > 100 µM, the TGI [35] was > 100 µM and the TGI [36] was > 100 µM. For the same compound, the TGI [58] was > 100 µM, the TGI [39] was > 100 µM and the TGI [40] was > 100 µM. The TGI [41] was > 100 µM, the TGI [59] was > 100 µM and the TGI [42] was > 100 µM. The TGI [43] was > 100 µM, the TGI [44] was > 100 µM and the TGI [45] was > 100 µM. The TGI [46] was > 100 µM and the TGI [47] was > 100 µM.
